Results on 2 molecules are retold here after article doi:10.1101/2020.07.01.182642v1 (biorxiv, 2020).

Targets include STK40 (Homo sapiens, UniProt Q8N2I9); PRKX (Homo sapiens, UniProt P51817); SRPK1 (Homo sapiens, UniProt Q96SB4); CAMK2D (Homo sapiens, UniProt Q13557); PRKG2 (Homo sapiens, UniProt Q13237); PRKACA (Homo sapiens, UniProt P17612); TYK2 (Homo sapiens, UniProt P29597); DDR1 (Homo sapiens, UniProt Q08345); TEC (Homo sapiens, UniProt P42680); PIM1 (Homo sapiens, UniProt P11309); CSNK1G2 (Homo sapiens, UniProt P78368).

What all share (conditions): binder

Sequence of STK40 (Q8N2I9 whole entry): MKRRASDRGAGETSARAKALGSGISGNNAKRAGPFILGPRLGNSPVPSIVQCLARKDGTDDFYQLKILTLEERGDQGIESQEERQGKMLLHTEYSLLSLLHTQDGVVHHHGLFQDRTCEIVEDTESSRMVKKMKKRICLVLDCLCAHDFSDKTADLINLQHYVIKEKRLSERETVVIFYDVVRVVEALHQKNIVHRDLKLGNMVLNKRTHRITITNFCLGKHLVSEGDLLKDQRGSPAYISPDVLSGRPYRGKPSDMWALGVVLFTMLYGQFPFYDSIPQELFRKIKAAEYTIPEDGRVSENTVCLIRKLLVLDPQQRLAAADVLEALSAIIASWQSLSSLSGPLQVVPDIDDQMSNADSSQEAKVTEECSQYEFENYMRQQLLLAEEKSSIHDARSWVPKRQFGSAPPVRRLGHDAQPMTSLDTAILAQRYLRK
Sequence of PIM1 (P11309 whole entry): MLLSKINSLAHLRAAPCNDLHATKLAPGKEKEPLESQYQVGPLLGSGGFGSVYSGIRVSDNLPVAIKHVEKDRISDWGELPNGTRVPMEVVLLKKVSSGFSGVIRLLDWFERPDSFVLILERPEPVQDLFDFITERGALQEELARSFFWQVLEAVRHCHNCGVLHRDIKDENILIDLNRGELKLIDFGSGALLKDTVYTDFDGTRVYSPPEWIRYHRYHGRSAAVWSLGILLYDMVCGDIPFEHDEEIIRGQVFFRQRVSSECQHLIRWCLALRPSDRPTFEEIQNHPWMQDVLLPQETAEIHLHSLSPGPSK
Sequence of DDR1 (Q08345 whole entry): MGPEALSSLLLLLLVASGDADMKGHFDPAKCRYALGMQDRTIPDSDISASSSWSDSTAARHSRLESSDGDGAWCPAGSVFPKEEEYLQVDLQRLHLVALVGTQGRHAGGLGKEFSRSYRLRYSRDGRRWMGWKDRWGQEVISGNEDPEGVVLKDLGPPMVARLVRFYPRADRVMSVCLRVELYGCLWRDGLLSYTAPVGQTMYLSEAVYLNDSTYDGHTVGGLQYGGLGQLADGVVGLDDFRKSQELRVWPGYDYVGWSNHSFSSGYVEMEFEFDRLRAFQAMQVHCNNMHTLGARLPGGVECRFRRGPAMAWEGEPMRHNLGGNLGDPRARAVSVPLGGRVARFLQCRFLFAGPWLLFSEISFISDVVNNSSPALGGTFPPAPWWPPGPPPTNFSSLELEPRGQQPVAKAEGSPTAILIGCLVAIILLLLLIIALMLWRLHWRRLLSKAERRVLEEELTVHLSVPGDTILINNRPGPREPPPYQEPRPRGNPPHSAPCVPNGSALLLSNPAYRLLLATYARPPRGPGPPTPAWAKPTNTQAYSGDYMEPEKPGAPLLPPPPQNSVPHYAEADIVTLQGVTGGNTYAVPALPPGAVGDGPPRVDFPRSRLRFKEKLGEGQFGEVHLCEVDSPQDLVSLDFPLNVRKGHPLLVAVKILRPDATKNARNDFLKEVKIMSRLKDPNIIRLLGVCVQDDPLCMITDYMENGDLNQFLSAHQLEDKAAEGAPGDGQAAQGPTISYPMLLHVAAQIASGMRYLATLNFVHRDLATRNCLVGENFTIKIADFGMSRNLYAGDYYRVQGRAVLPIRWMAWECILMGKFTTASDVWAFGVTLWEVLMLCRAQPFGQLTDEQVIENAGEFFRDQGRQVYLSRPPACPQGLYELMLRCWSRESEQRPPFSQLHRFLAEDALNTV
Sequence of CAMK2D (Q13557 whole entry): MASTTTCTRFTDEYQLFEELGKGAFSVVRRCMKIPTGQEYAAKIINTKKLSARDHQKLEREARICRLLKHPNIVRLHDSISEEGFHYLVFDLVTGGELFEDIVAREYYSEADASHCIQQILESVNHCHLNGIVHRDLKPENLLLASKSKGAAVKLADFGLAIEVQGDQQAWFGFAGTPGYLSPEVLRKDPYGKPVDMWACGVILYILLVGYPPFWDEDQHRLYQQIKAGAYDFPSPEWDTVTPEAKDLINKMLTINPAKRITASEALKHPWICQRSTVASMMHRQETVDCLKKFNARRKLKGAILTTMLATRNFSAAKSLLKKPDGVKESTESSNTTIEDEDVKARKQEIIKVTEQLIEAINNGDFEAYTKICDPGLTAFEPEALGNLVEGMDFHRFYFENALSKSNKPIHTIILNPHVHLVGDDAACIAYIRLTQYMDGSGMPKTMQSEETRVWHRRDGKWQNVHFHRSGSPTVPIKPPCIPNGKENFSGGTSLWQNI
Sequence of PRKX (P51817 whole entry): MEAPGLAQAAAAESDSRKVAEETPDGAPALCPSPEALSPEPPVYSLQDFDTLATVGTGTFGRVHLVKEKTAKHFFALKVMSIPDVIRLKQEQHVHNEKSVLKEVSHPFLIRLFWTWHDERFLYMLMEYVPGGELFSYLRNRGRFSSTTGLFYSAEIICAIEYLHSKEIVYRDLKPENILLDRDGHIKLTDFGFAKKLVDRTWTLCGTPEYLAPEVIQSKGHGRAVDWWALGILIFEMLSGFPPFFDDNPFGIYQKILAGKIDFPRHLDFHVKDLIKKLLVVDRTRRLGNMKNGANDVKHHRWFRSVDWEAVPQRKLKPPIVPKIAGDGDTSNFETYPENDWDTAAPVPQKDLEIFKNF
Sequence of TEC (P42680 whole entry): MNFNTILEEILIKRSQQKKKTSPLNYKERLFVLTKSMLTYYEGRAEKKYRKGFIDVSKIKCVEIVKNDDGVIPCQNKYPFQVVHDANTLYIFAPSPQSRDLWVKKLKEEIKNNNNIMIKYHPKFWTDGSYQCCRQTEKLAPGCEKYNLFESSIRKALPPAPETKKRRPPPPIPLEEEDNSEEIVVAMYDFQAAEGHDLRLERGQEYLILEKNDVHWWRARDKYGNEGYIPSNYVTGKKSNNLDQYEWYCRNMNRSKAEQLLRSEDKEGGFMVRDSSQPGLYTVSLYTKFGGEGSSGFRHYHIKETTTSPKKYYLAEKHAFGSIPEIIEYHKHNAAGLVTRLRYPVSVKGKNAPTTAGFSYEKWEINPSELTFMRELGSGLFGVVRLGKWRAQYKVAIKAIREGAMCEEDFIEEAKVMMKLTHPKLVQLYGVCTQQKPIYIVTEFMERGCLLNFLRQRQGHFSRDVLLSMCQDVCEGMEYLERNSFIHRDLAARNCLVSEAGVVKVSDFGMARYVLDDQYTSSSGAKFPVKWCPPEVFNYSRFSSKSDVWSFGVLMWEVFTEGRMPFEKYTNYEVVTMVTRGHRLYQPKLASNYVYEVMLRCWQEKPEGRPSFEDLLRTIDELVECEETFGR
Sequence of TYK2 (P29597 whole entry): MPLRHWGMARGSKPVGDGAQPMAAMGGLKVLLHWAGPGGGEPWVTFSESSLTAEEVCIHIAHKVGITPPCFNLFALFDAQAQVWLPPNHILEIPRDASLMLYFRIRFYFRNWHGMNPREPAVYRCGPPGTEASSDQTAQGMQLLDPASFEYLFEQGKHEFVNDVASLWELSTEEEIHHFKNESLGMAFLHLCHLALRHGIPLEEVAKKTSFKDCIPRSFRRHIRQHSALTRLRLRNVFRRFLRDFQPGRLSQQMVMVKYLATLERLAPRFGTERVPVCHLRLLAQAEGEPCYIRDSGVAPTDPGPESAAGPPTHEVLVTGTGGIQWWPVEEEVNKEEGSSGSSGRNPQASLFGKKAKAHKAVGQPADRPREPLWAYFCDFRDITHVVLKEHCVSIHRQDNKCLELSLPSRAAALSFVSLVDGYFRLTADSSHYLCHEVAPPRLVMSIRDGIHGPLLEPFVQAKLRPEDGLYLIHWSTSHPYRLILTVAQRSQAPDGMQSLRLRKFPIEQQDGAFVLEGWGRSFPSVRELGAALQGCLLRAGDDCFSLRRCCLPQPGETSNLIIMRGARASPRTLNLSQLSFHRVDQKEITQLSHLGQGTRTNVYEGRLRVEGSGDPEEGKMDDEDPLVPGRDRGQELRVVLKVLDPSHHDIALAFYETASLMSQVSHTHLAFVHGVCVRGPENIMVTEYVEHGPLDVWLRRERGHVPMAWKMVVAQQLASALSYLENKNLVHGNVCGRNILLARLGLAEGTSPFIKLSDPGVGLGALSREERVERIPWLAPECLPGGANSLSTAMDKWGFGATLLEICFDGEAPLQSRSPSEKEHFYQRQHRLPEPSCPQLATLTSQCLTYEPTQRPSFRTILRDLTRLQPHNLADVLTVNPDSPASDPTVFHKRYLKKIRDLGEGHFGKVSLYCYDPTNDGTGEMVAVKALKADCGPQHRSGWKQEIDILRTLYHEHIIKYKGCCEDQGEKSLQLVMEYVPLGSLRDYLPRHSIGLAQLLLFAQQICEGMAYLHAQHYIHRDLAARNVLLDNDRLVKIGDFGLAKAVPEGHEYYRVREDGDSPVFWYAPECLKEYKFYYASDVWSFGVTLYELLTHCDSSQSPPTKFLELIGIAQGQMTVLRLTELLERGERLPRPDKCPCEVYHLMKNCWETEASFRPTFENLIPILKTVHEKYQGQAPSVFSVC
Sequence of SRPK1 (Q96SB4 whole entry): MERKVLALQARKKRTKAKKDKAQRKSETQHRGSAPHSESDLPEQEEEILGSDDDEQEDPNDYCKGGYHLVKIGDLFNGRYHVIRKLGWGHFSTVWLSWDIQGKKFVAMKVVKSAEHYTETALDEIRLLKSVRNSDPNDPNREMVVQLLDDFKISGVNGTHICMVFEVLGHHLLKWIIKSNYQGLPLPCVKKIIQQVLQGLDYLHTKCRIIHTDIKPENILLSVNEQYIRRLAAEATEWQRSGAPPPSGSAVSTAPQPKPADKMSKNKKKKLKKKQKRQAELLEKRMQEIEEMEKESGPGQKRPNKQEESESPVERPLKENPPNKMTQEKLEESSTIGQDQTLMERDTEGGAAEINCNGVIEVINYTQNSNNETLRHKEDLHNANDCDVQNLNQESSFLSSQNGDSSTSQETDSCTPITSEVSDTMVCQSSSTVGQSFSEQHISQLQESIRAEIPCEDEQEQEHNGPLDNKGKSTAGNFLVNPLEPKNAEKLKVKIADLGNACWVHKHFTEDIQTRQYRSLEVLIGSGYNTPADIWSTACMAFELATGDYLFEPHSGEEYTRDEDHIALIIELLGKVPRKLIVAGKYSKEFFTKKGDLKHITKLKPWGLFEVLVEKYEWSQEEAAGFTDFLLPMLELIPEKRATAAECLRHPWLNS

As for `CCN1/C(=C/C(C)=O)Sc2ccc(OC)cc21` [compound 2, TG003], the “ΔTm inhibitor 2” value at STK40 was 0.0 °C; on PRKX, -0.2 °C; on SRPK1 it was 0.0 °C; at CAMK2D, -0.6 °C; on PRKG2, -0.1 °C; on PRKACA, -0.2 °C. Besides, the “ΔTm inhibitor 2” value was 0.6 °C at TYK2, 0.4 °C on DDR1 and 1.0 °C on TEC.
For the molecule `CC(=O)c1cccc(-c2cnc3ccc(NCC4CC4)nn23)c1` [compound 1, K00135], the “ΔTm inhibitor 1” value on PIM1 was found to be 6.3 °C; on CSNK1G2 it was 2.5 °C.
